Patent US10981926B2 (Janssen Pharmaceutica NV, priority 2016, dated 2021)

What was measured:
[1] = molecular target: T1, wild-type Androgen Receptor (AR-wt) (Homo sapiens (Human), UniProt P10275); test: LNCaP-AR-wt AG reporter assay (agonist mode); format: cell-based; details: for EC50 / LNCaP-AR-wt AG pEC50: agonist mode, pEC50 = −Log10(EC50 in Molar); for EC50: read-out: LNCaP-AR-wt AG pEC50 (converted); for Emax: read-out: LNCaP-AR-wt AG MAX % Stim
rGABA-gated Cl− channel = test: GABA-Gated Cl Channel Antagonist Radioligand Binding Assay; parameters: species or system rat; details: 10 μM single point, [35S]-TBPS, cerebral cortex membrane homogenates
How it was run: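 Values give percent inhibition of control specific […] (3 nM) binding at a single 10 μM compound concentration. Cerebral cortex membranes, 120 min, 22° C, phosphate buffer pH 7.4 with 500 mM NaCl; 20 μM picrotoxinin sets nonspecific binding; filtration and scintillation read-out.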

[2] = molecular target: T2, F876L mutant Androgen Receptor (AR-F876L) (Homo sapiens (Human), UniProt P10275, F877L); test: LNCaP-AR-F876L ANT reporter assay (antagonist mode); format: cell-based; details: for IC50 / LNCaP-AR-F876L ANT pIC50: antagonist mode, pIC50 = −Log10(IC50 in Molar); for IC50: read-out: LNCaP-AR-F876L ANT pIC50 (converted); for Emax: read-out: LNCaP-AR-F876L ANT MAX % Inh
[3] = molecular target: T2, F876L mutant Androgen Receptor (AR-F876L); test: LNCaP-AR-F876L AG reporter assay (agonist mode); format: cell-based; details: for EC50 / LNCaP-AR-F876L AG pEC50: agonist mode, pEC50 = −Log10(EC50 in Molar); for EC50: read-out: LNCaP-AR-F876L AG pEC50 (converted); for Emax: read-out: LNCaP-AR-F876L AG MAX % Stim
[4] = molecular target: T1, wild-type Androgen Receptor (AR-wt); test: LNCaP-AR-wt ANT reporter assay (antagonist mode); format: cell-based; details: for IC50 / LNCaP-AR-wt ANT pIC50: antagonist mode, pIC50 = −Log10(IC50 in Molar); for IC50: read-out: LNCaP-AR-wt ANT pIC50 (converted); for Emax: read-out: LNCaP-AR-wt ANT MAX % Inh
[5] = maximum % stimulation (agonist response) over the tested concentration range
[6] = maximum % inhibition of R1881 control response over the tested concentration range

T1 sequence (P10275 whole entry): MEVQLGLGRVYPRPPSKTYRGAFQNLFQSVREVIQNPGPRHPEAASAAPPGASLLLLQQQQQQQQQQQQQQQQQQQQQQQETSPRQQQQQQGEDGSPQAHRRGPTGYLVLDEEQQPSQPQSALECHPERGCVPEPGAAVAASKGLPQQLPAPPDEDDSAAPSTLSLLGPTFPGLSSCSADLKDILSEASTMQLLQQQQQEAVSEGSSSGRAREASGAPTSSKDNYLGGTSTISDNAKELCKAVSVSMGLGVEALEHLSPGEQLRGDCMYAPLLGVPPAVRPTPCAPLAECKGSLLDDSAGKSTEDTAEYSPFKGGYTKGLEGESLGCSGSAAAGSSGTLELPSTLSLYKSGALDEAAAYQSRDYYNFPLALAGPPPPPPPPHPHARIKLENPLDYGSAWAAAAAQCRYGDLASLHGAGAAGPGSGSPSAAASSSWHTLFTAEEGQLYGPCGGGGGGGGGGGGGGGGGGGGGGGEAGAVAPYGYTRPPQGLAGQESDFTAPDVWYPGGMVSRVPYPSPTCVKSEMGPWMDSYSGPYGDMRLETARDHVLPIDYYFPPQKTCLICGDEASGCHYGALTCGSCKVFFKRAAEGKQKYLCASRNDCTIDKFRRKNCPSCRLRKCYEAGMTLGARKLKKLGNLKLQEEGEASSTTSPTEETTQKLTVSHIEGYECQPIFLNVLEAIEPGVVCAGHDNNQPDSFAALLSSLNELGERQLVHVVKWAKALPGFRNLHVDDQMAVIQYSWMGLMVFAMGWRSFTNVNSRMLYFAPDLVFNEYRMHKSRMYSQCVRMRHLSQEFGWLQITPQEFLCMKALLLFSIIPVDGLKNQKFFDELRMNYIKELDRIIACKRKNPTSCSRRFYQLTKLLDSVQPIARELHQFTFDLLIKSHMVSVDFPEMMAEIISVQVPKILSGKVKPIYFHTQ
T2 sequence (P10275 whole entry F877L): as the sequence (P10275 whole entry) above, with F877L counted along it

Compound	EC50 [1] [nM]	Emax [1, 5] [%]	rGABA-gated Cl− channel % inh @10 μM (rGABA-gated Cl− channel) [%]	IC50 [2] [nM]	Emax [2, 6] [%]	EC50 [3] [nM]	Emax [3, 5] [%]	IC50 [4] [nM]	Emax [4, 6] [%]	LNCaP-AR-F876L ANT pIC50 [2]	LNCaP-AR-wt ANT pIC50 [4]	LNCaP-AR-wt AG pEC50 [1]	LNCaP-AR-wt AG MAX % Stim [1, 5] [%]	LNCaP-AR-F876L ANT MAX % Inh [2, 6] [%]	LNCaP-AR-F876L AG pEC50 [3]	LNCaP-AR-F876L AG MAX % Stim [3, 5] [%]	LNCaP-AR-wt ANT MAX % Inh [4, 6] [%]
N#Cc1ncc(N2C(=O)C3(CCC3)N(c3ccc(OCC4CC(F)(F)CN4)cc3)C2=S)cc1C(F)(F)F (stereo not drawn) [Cpd 54, 5-[8-[4-[(4,4-difluoropyrrolidin-2-yl)methoxy]phenyl]-5-oxo-7-thioxo-6,8-diazaspiro[3.4]octan-6-yl]-3-(trifluoromethyl)pyridine-2-carbonitrile]	> 15100	1.3	93.0	93.3	97.1	> 15100	0.7	81.3	101								
N#Cc1ncc(N2C(=O)C3(CCC3)N(c3ccc(OC4CCN(CCO)CC4)nc3)C2=S)cc1Cl [Cpd 79, 3-chloro-5-[8-[6-[[1-(2-hydroxyethyl)-4-piperidyl]oxy]-3-pyridyl]-5-oxo-7-thioxo-6,8-diazaspiro[3.4]octan-6-yl]pyridine-2-carbonitrile]	> 15100	1.2	11.5	8.13	98.5	> 15100	1.3	6.76	101								
CN1CC[C@H](Oc2ccc(N3C(=S)N(c4cnc(C#N)c(C(F)(F)F)c4)C(=O)C34CCC4)cc2)[C@H](F)C1 (racemic) [Cpd 102]	> 15100	0.4	52.1	49	99.6	> 15100	0.3	79.4	99.7								
COCCN1CCC(Oc2ccc(N3C(=S)N(c4cnc(C#N)c(Cl)c4)C(=O)C34CCC4)cn2)CC1 [Cpd 70, 3-chloro-5-[8-[6-[[1-(2-methoxyethyl)-4-piperidyl]oxy]-3-pyridyl]-5-oxo-7-thioxo-6,8-diazaspiro[3.4]octan-6-yl]pyridine-2-carbonitrile]	> 15100	0.8	9.2	38.9	97.1	> 15100	3.6	33.9	98.8								
N#Cc1ncc(N2C(=O)C3(CCC3)N(c3ccc(CN4CCNCC4)cc3)C2=S)cc1C(F)(F)F [Cpd 48, 5-[5-oxo-8-[4-(piperazin-1-ylmethyl)phenyl]-7-thioxo-6,8-diazaspiro[3.4]octan-6-yl]-3-(trifluoromethyl)pyridine-2-carbonitrile]	> 15100	0	37.2		100	> 15100	0.2		102	6.69	6.45						
N#Cc1ncc(N2C(=O)C3(CCC3)N(c3ccc(OC4C5CCC4CNC5)cc3)C2=S)cc1C(F)(F)F (stereo not drawn) [Cpd 138, 5-[8-[4-(3-azabicyclo[3.2.1]octan-8-yloxy)phenyl]-5-oxo-7-thioxo-6,8-diazaspiro[3.4]octan-6-yl]-3-(trifluoromethyl)pyridine-2-carbonitrile]	> 15100	-0.1	35.6	269	100	> 15100	0.1	427	103								
3-chloro-5-[8-[2-(1-methyl-4-piperidyl)indazol-5-yl]-5-oxo-7-thioxo-6,8-diazaspiro[3.4]octan-6-yl]pyridine-2-carbonitrile [Cpd 181]			26.0							6.80	6.47	<4.82	1.9	101.9	<4.82	0.3	96.8
N#Cc1ncc(N2C(=O)C3(CCC3)N(c3ccc(N4CCOCC4)cc3)C2=S)cc1C(F)(F)F [Cpd 69, 5-[8-(4-Morpholinophenyl)-5-oxo-7-thioxo-6,8-diazaspiro[3.4]octan-6-yl]-3-(trifluoromethyl)pyridine-2-carbonitrile]	> 15100	0.2	77.5	69.2	98.9	> 15100	0.1	115	101								
N#Cc1ncc(N2C(=O)C3(CCC3)N(c3ccc(OC4CC5CCC(N5)C4F)cc3)C2=S)cc1C(F)(F)F (stereo not drawn) [Cpd 93, 5-[8-[4-[(4-fluoro-8-azabicyclo[3.2.1]octan-3-yl)oxy]phenyl]-5-oxo-7-thioxo-6,8-diazaspiro[3.4]octan-6-yl]-3-(trifluoromethyl)pyridine-2-carbonitrile]		0.5	74.4	45.7	102		0.2		105		6.77	<4.82			<4.82		
N#Cc1ncc(N2C(=O)C3(CCC3)N(c3ccc(OCCN4CC5(C4)CC(F)(F)C5)cc3)C2=S)cc1C(F)(F)F [Cpd 83, 5-[8-[4-[2-(2,2-difluoro-6-azaspiro[3.3]heptan-6-yl)ethoxy]phenyl]-5-oxo-7-thioxo-6,8-diazaspiro[3.4]octan-6-yl]-3-(trifluoromethyl)pyridine-2-carbonitrile]	> 15100	-0.2	20.5	129	99	> 15100	0.2	229	102								
COc1cc(N2C(=O)C3(CCC3)N(c3ccc(OC4CCN(C)CC4)cc3)C2=S)cnc1C#N [Cpd 23, 3-methoxy-5-[8-[4-[(1-methyl-4-piperidyl)oxy]phenyl]-5-oxo-7-thioxo-6,8-diazaspiro[3.4]octan-6-yl]pyridine-2-carbonitrile]	> 15100	0.4	4.8		101	> 15100	0.4		102	6.67	6.52						
N#Cc1ncc(N2C(=O)C3(CCC3)N(c3ccc(C4=C[C@@H](O)[C@H](O)CO4)cc3)C2=S)cc1C(F)(F)F [Cpd 112, 5-(5-(4-((3R,4R)-3,4-dihydroxy-3,4-dihydro-2H-pyran-6-yl)phenyl)-8-oxo-6-thioxo-5,7-diazaspiro[3.4]octan-7-yl)-3-(trifluoromethyl)picolinonitrile]	> 15100	0.3	99.1	282	100	> 15100	0.2	269	102								
CC(=O)N1CC(F)(F)CC1COc1ccc(N2C(=S)N(c3cnc(C#N)c(C(F)(F)F)c3)C(=O)C23CCC3)cc1 (stereo not drawn) [Cpd 71, 5-[8-[4-[(1-acetyl-4,4-difluoro-pyrrolidin-2-yl)methoxy]phenyl]-5-oxo-7-thioxo-6,8-diazaspiro[3.4]octan-6-yl]-3-(trifluoromethyl)pyridine-2-carbonitrile]	> 15100	0.2	82.1	178	98.3	> 15100	0.5	102	101								
COCCN1CCC(Oc2ccc(N3C(=S)N(c4cnc(C#N)c(C(F)(F)F)c4)C(=O)C34CCC4)cn2)CC1 [Cpd 61, 5-[8-[6-[[1-(2-methoxyethyl)-4-piperidyl]oxy]-3-pyridyl]-5-oxo-7-thioxo-6,8-diazaspiro[3.4]octan-6-yl]-3-(trifluoromethyl)pyridine-2-carbonitrile]	> 15100	0.4	26.1	36.3	98.8	> 15100	0.3	29.5	99.2								
Cc1cc(N2C(=O)C3(CCC3)N(c3ccc(OC4CCN(CCO)CC4)nc3)C2=S)cnc1C#N [Cpd 100, 5-[8-[6-[[1-(2-hydroxyethyl)-4-piperidyl]oxy]-3-pyridyl]-5-oxo-7-thioxo-6,8-diazaspiro[3.4]octan-6-yl]-3-methyl-pyridine-2-carbonitrile]	> 15100	0.1	2.3	58.9	98.9	> 15100	0.5	162	100								
